Values of other authors, collected in US7129249B2, “Heterocyclic amide derivatives as inhibitors of glycogen phoshorylase” (AstraZeneca AB, priority 2002, dated 2006).

Assays:
[1] = test system: hepatocytes
[2] = test system: db/db and ob/ob mice; details: db/db and ob/ob mice following treatment
[3] = test system: conscious dogs; details: following a glucagon challenge

Row | SMILES | glucagon stimulated glycogenolysis [1] | glucose output [1] | plasma glucose concentration [2] | arterial plasma glucose [3] | hepatic glucose output [3]
1 | CN(C)C(=O)[C@H](O)[C@H](Cc1ccccc1)NC(=O)c1cc2cc(Cl)ccc2[nH]1 [CP91149] | reduce | reduce | reduced, in a dose related manner |  | 
2 | CCN1C(C)=C(C(=O)OC(C)C)C(c2ccccc2Cl)C2=C1COC2=O (centres unmarked) [Bay R 3401] |  |  |  | reduced significantly | reduced significantly
3 | O=C(N[C@@H](Cc1ccc(F)cc1)C(=O)N1CCC(O)CC1)c1cc2cc(Cl)ccc2[nH]1 [CP320626] | reduce | reduce | reduced, in a dose related manner |  | 
